This note sets out measurements from US7642277B2, “Non-nucleoside reverse transcriptase inhibitors” (Boehringer Ingelheim International GmbH, priority 2002, dated 2010).

The term IC50 denotes the concentration at which inhibition is half-maximal.

This experiment deals with T1, HIV-1 RT enzyme (wild type) (Human immunodeficiency virus type 1 group M subtype B, UniProt P04585).
T1 construct: The reverse transcriptase (RT) enzyme assay has been adapted to a 96-well microtiter plate format
The experiment can be described thus: Reverse transcriptase (RT) enzymatic assay (IC50), PicoGreen fluorescence, wild type. To be noted: RT enzymatic assay, wild type; read-out: IC50 WT. It is filed as biochemical. As for the experimental part:
Reverse Transcriptase (RT) Assays Enzymatic Assay (IC50)
The enzymatic assay employed is described as follows: The reverse transcriptase (RT) enzyme assay has been adapted to a 96-well microtiter plate format and uses PicoGreen™ as a fluorescent intercalator. More explicitly, the HIV-1 RT enzyme was thawed and appropriately diluted into Tris/HCl 50 mM pH 7.8 containing NaCl 60 mM, MgCl2∘6H2O 2 mM, DTT 6 mM, GSH 2 mM and 0.02% w/v Chaps to give ≈10 nM enzyme. […] The plate was pre-incubated for 15 minutes at room temperature before proceeding to the next step. […] Then the enzymatic reaction was initiated by addition of 20 μL of substrate solution. […] After addition of the substrate cocktail, the plate was covered with a plastic seal and incubated for 50 minutes at 37° C. in a dry incubator. The reaction was then quenched by addition of 5 μL of EDTA 0.5 M. The plate was shaken for 30 seconds at medium speed and incubated for 5 minutes at room temperature. Then 160 μL of PicoGreen™ 1:400 dilution from commercial stock (diluted in Tris 20 mM pH 7.5 with EDTA 1 mM) was added and the plate was shaken for 30 seconds and incubated for 10 minutes at room temperature. […] Each row contained at its extremities a blank and a control well.
Table legend: A=>100; B=100-50; C=<50; NT=not tested
For the molecule `O=C(CSc1nnnn1-c1cccc2ncccc12)Nc1ccccc1[N+](=O)[O-]` [Entry 106], the IC50 was more than 100 nM.

For the molecule `O=C(CSc1nnnn1Cc1ccc2ccccc2c1)Nc1ccccc1[N+](=O)[O-]` [Entry 107], the IC50 is more than 100 nM.

On to `COC(=O)c1cccc(-n2nnnc2SCC(=O)Nc2ccccc2[N+](=O)[O-])c1` [Entry 120], for which the IC50 was more than 100 nM.

Turning to `COc1ccc(-n2nnnc2SCC(=O)Nc2ccccc2[N+](=O)[O-])c(OC)c1` [Entry 131], the IC50 was more than 100 nM.

As to `Cc1ccccc1-c1ccc(-n2nnnc2SCC(=O)Nc2ccccc2[N+](=O)[O-])c(C)c1` [Entry 132], the IC50 was more than 100 nM.

Turning to `Cc1cccc(C)c1-n1nnnc1SCC(=O)Nc1ccccc1[N+](=O)[O-]` [Entry 138], the IC50 was more than 100 nM.

In the case of `CCc1ccccc1NC(=O)CSc1nnnn1-c1cccc2ccccc12` [Entry 203], the half-maximal inhibitory concentration (IC50) is more than 100 nM.

Consider `CC(C)c1ccccc1NC(=O)CSc1nnnn1-c1cccc2ccccc12` [Entry 204], for which the half-inhibitory concentration (IC50) is more than 100 nM.

`O=C(CSc1nnnn1-c1cccc2ccccc12)Nc1ccccc1Cc1ccccc1` [Entry 205]: the concentration for half-maximal inhibition (IC50) is more than 100 nM.

With `O=C(CSc1nnnn1-c1cccc2ccccc12)Nc1ccccc1-c1ccccc1` [Entry 206], the half-inhibitory concentration (IC50) was more than 100 nM.

Turning to `O=C(CSc1nnnn1-c1cccc2ccccc12)Nc1ccccc1F` [Entry 207], the IC50 is more than 100 nM.

On to `COc1ccccc1NC(=O)CSc1nnnn1-c1cccc2ccccc12` [Entry 212], for which the IC50 is more than 100 nM.

Turning to `CCOc1ccccc1NC(=O)CSc1nnnn1-c1cccc2ccccc12` [Entry 213], the half-maximal inhibitory concentration (IC50) is more than 100 nM.

Turning to `O=C(CSc1nnnn1-c1cccc2ccccc12)Nc1ccccc1C(F)(F)F` [Entry 214], the half-maximal inhibitory concentration (IC50) was more than 100 nM.

For `CC(=O)c1ccccc1NC(=O)CSc1nnnn1-c1cccc2ccccc12` [Entry 215], the IC50 was more than 100 nM.

Turning to `COC(=O)c1ccccc1NC(=O)CSc1nnnn1-c1cccc2ccccc12` [Entry 216], the IC50 was more than 100 nM.

As to `NC(=O)c1ccccc1NC(=O)CSc1nnnn1-c1cccc2ccccc12` [Entry 217], the 50% inhibitory concentration (IC50) is more than 100 nM.

`CSc1ccccc1NC(=O)CSc1nnnn1-c1cccc2ccccc12` [Entry 218]: the half-inhibitory concentration (IC50) was more than 100 nM.

Regarding `NS(=O)(=O)c1ccccc1NC(=O)CSc1nnnn1-c1cccc2ccccc12` [Entry 220], the IC50 is more than 100 nM.

`O=C(CSc1nnnn1-c1cccc2ccccc12)Nc1ccccc1N1CCOCC1` [Entry 221]: the half-maximal inhibitory concentration (IC50) was more than 100 nM.

On to `O=C(CSc1nnnn1-c1cccc2ccccc12)Nc1ccccc1-n1cccc1` [Entry 222], for which the IC50 was more than 100 nM.

Consider `O=C(CSc1nnnn1-c1cccc2ccccc12)Nc1cccc([N+](=O)[O-])c1` [Entry 223], for which the IC50 is more than 100 nM.

With `COc1ccc(NC(=O)CSc2nnnn2-c2cccc3ccccc23)cc1` [Entry 224], the half-inhibitory concentration (IC50) was more than 100 nM.

For `O=C(CSc1nnnn1-c1cccc2ccccc12)Nc1ccc(O)cc1` [Entry 225], the concentration for half-maximal inhibition (IC50) was more than 100 nM.

With `O=C(CSc1nnnn1-c1cccc2ccccc12)Nc1ccc(-c2ccccc2)cc1` [Entry 226], the IC50 is more than 100 nM.

In the case of `O=C(CSc1nnnn1-c1cccc2ccccc12)Nc1ccc([N+](=O)[O-])cc1` [Entry 227], the IC50 was more than 100 nM.

For the molecule `Cc1cccc(NC(=O)CSc2nnnn2-c2cccc3ccccc23)c1C` [Entry 228], the 50% inhibitory concentration (IC50) was more than 100 nM.

`O=C(CSc1nnnn1-c1cccc2ccccc12)Nc1cccc2c1CCCC2` [Entry 229]: the IC50 is more than 100 nM.

As to `O=C(CSc1nnnn1-c1cccc2ccccc12)Nc1cccc(Cl)c1F` [Entry 232], the IC50 is more than 100 nM.

As for `Cc1ccc(NC(=O)CSc2nnnn2-c2cccc3ccccc23)c(C)c1` [Entry 233], the IC50 is more than 100 nM.

Turning to `O=C(CSc1nnnn1-c1cccc2ccccc12)Nc1c(Cl)cccc1Cl` [Entry 241], the concentration for half-maximal inhibition (IC50) was more than 100 nM.

Take `COc1cc(NC(=O)CSc2nnnn2-c2cccc3ccccc23)cc(OC)c1` [Entry 242]: the half-inhibitory concentration (IC50) was more than 100 nM.

Turning to `O=C(CSc1nnnn1-c1cccc2ccccc12)Nc1ccccn1` [Entry 243], the IC50 was more than 100 nM.

Consider `O=C(CSc1nnnn1-c1cccc2ccccc12)Nc1cccnc1` [Entry 244], for which the IC50 was more than 100 nM.

On to `O=C(CSc1nnnn1-c1cccc2ccccc12)Nc1ccncc1` [Entry 245], for which the half-inhibitory concentration (IC50) was more than 100 nM.

Consider `O=C(CNc1nnnn1-c1cccc2ccccc12)Nc1ccccc1[N+](=O)[O-]` [Entry 303], for which the IC50 was more than 100 nM.

Regarding `O=C(CCCc1nnnn1-c1cccc2ccccc12)Nc1ccccc1Cl` [Entry 305], the IC50 is more than 100 nM.

For the molecule `O=C(CCCc1nnnn1-c1cccc2ccccc12)Nc1ccccc1[N+](=O)[O-]` [Entry 306], the IC50 was more than 100 nM.

With `O=C(C=Cc1nnnn1-c1cccc2ccccc12)Nc1ccccc1[N+](=O)[O-]` [Entry 307], the IC50 is more than 100 nM.

As for `O=[N+]([O-])c1ccccc1C(O)CSc1nnnn1-c1cccc2ccccc12` (centres unmarked) [Entry 309], the IC50 is more than 100 nM.

Take `O=[N+]([O-])c1ccccc1CCSc1nnnn1-c1cccc2ccccc12` [Entry 310]: the 50% inhibitory concentration (IC50) was more than 100 nM.

Consider `Clc1ccccc1CCCSc1nnnn1-c1cccc2ccccc12` [Entry 311], for which the IC50 is more than 100 nM.

As for `O=[N+]([O-])c1ccccc1/C=C/CSc1nnnn1-c1cccc2ccccc12` [Entry 312], the half-maximal inhibitory concentration (IC50) was more than 100 nM.

On to `Clc1ccccc1/C=C/CSc1nnnn1-c1cccc2ccccc12` [Entry 313], for which the 50% inhibitory concentration (IC50) was more than 100 nM.

Take `OC(CSc1nnnn1-c1cccc2ccccc12)C(O)c1ccccc1Cl` (centres unmarked) [Entry 319]: the IC50 is more than 100 nM.

As for `O=[N+]([O-])c1ccccc1OCCSc1nnnn1-c1cccc2ccccc12` [Entry 320], the half-maximal inhibitory concentration (IC50) was more than 100 nM.

Take `Clc1ccccc1OCCSc1nnnn1-c1cccc2ccccc12` [Entry 321]: the half-inhibitory concentration (IC50) is more than 100 nM.

Consider `O=C(OCCSc1nnnn1-c1cccc2ccccc12)c1ccccc1[N+](=O)[O-]` [Entry 322], for which the IC50 was more than 100 nM.

`O=C(OCCSc1nnnn1-c1cccc2ccccc12)c1ccccc1Cl` [Entry 323]: the IC50 is more than 100 nM.

`Clc1ccccc1OCCCSc1nnnn1-c1cccc2ccccc12` [Entry 324]: the IC50 was more than 100 nM.

Consider `O=[N+]([O-])c1ccccc1NCCSc1nnnn1-c1cccc2ccccc12` [Entry 326], for which the IC50 is more than 100 nM.

Take `CN(CCSc1nnnn1-c1cccc2ccccc12)c1ccccc1[N+](=O)[O-]` [Entry 327]: the IC50 is more than 100 nM.

Consider `O=[N+]([O-])c1ccccc1CNCCSc1nnnn1-c1cccc2ccccc12` [Entry 328], for which the concentration for half-maximal inhibition (IC50) is more than 100 nM.

Consider `O=[N+]([O-])c1ccccc1NCCCSc1nnnn1-c1cccc2ccccc12` [Entry 329], for which the IC50 was more than 100 nM.

In the case of `O=C(NCCSc1nnnn1-c1cccc2ccccc12)c1ccccc1Cl` [Entry 331], the IC50 was more than 100 nM.

In the case of `CN(CCSc1nnnn1-c1cccc2ccccc12)C(=O)c1ccccc1Cl` [Entry 332], the half-inhibitory concentration (IC50) was more than 100 nM.

Take `O=C(NCCSc1nnnn1-c1cccc2ccccc12)Nc1ccccc1[N+](=O)[O-]` [Entry 333]: the concentration for half-maximal inhibition (IC50) was more than 100 nM.

`O=C(NCCSc1nnnn1-c1cccc2ccccc12)Nc1ccccc1Cl` [Entry 334]: the half-inhibitory concentration (IC50) was more than 100 nM.

Turning to `O=C(CSCc1nnnn1-c1cccc2ccccc12)Nc1ccccc1[N+](=O)[O-]` [Entry 335], the IC50 was more than 100 nM.

On to `O=C(COCc1nnnn1-c1cccc2ccccc12)Nc1ccccc1[N+](=O)[O-]` [Entry 336], for which the half-maximal inhibitory concentration (IC50) was more than 100 nM.

As for `O=C(CNCc1nnnn1-c1cccc2ccccc12)Nc1ccccc1[N+](=O)[O-]` [Entry 337], the half-maximal inhibitory concentration (IC50) is more than 100 nM.

Turning to `CN(CC(=O)Nc1ccccc1[N+](=O)[O-])Cc1nnnn1-c1cccc2ccccc12` [Entry 338], the half-maximal inhibitory concentration (IC50) is more than 100 nM.

Regarding `c1ccc2c(-n3nnnc3SCc3nc4ccccc4[nH]3)cccc2c1` [Entry 339], the IC50 was more than 100 nM.

Consider `O=[N+]([O-])c1cccc2[nH]c(CSc3nnnn3-c3cccc4ccccc34)nc12` [Entry 340], for which the IC50 was more than 100 nM.

In the case of `O=C1c2ccccc2C(=O)N1CCSc1nnnn1-c1cccc2ccccc12` [Entry 341], the 50% inhibitory concentration (IC50) was more than 100 nM.

For the molecule `CN(C(=O)CSc1nnnn1-c1cccc2ccccc12)c1ccccc1Cl` [Entry 342], the IC50 was more than 100 nM.

As to `O=C(Nc1ccccc1[N+](=O)[O-])C1CC1c1nnnn1-c1cccc2ccccc12` (centres unmarked) [Entry 343], the IC50 was more than 100 nM.

`O=C(CSc1nnnn1-c1cccc2ccccc12)NCc1ccccc1[N+](=O)[O-]` [Entry 344]: the concentration for half-maximal inhibition (IC50) was more than 100 nM.

As for `O=C(CSc1nnnn1-c1cccc2ccccc12)Cc1ccccc1[N+](=O)[O-]` [Entry 345], the concentration for half-maximal inhibition (IC50) is more than 100 nM.

For `O=C1C(Sc2nnnn2-c2cccc3ccccc23)CCN1c1ccccc1Cl` (centres unmarked) [Entry 346], the 50% inhibitory concentration (IC50) was more than 100 nM.

Turning to `O=C(CCC1=C(c2cccc3ccccc23)CCC1)Nc1ccccc1Cl` [Entry 405], the IC50 was more than 100 nM.

As for `O=C(C[S+]([O-])c1ccccc1-c1cccc2ccccc12)Nc1ccccc1Cl` (centres unmarked) [Entry 407], the half-inhibitory concentration (IC50) was more than 100 nM.

In the case of `O=C(CS(=O)(=O)c1ccccc1-c1cccc2ccccc12)Nc1ccccc1Cl` [Entry 408], the IC50 is more than 100 nM.

Turning to `O=C(CCc1ccccc1-c1cccc2ccccc12)Nc1ccccc1Cl` [Entry 410], the 50% inhibitory concentration (IC50) is more than 100 nM.
